Drawing on patent publication US20260176289A1, “SMALL MOLECULE INHIBITORS OF KRAS PROTEINS” (Merck Sharp & Dohme LLC, priority 2022, published 2026), this text covers IC50 for eight molecules.

A word on the pIC50: it is −log10 of the IC50, conventionally taken in molar units.

pIC50: −log10 of the molar value. Like-named read-outs stand apart in the source and are kept apart here.

For test [1], the target named is KRAS-G12C (C51S/C80L/C118S) (Homo sapiens, UniProt P01116, C118S/C51S/C80L/G12C). Briefly: SOS-catalyzed nucleotide exchange assay (Procedure A, TR-FRET), KRAS-G12C. The test is classed as biochemical. The settings on record: nucleotide exchange, Procedure A; read-out: KRAS G12C GNE IC50. An excerpt: (§1) Procedure for SOS-Catalyzed Nucleotide Exchange Assay for KRAS-WT, G12C/D/V, G13D, HRAS, and NRAS (Procedure A)
KRAS-G12C (C51S/C80L/C118S), sequence (P01116 with tags, fused parts or gaps isoform P01116-2 G12C/C51S/C80L/C118S): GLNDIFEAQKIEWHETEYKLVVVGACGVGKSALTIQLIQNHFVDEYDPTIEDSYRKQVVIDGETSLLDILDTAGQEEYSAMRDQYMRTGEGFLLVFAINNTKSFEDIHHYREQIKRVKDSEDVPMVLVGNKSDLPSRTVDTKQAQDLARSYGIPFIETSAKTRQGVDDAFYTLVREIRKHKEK
(§2) Recombinant KRAS-G12C protein used in this assay has an additional triple mutation (C51S/C80L/C118S). Whereas KRAS-WT, G12D/V, G13D, HRAS and NRAS are in context of their WT protein sequence background. Specifically, the SOS-catalyzed nucleotide exchange assay utilizes a preformed TR-FRET complex containing a specific biotinylated RAS protein (KRAS-WT, G12C/V/D, G13D, HRAS, NRAS; described above) with Bodipy-GDP, and Terbium-streptavidin. Compounds are preincubated with this complex for 60 minutes. Subsequently, recombinant human SOS protein and unlabeled GTP are added to initiate the exchange reaction. Small molecule inhibitors stabilize the Bodipy-GDP complex whereas the untreated protein rapidly exchanges Bodipy-GDP for unlabeled GTP resulting in reduced TR-FRET signal.
(§3) To assemble the preformed TR-FRET complexes, each biotinylated RAS protein is diluted to 2 μM in an EDTA Buffer (20 mM HEPES pH 7.5, 50 mM sodium chloride, 10 mM EDTA, and 0.01% Tween) and incubated at room temperature for one hour. This mixture is then further diluted to 90 nM in an Assay Buffer (20 mM HEPES pH 7.5, 150 mM sodium chloride, 10 mM magnesium chloride, and 0.005% Tween) containing 15 nM of Terbium-Streptavidin (Invitrogen, catalog #PV3577) and 900 nM of Bodipy-GDP (Invitrogen, catalog #G22360) and incubated at room temperature for six hours. It should be noted that this preformed TR-FRET complex for each of the RAS protein were made ahead of time, aliquoted and stored at −80° C. until the day of the experiment.
(§4) Each test compound (10 mM stock in DMSO) is diluted in DMSO to make a final-10-point, 3-fold dilution and is acoustically dispensed into a 384-well assay plate (Corning, catalog #3820) using an Echo 550 (Labcyte). Each well of the assay plate receives 3 μL of a specific 3×RAS preformed TR-FRET complex and 3 μL of Assay Buffer and is incubated at room temperature for 60 minutes (preincubation time). Each well then receives 3 μL of 3×recombinant human SOS protein and GTP (Sigma, G8877) in Assay Buffer and is incubated at room temperature for 30 minutes (G13D), 60 minutes (KRAS WT/G12C/D, H/NRAS) or 90 minutes for G12V. The final reaction in each well of 9 μL consists of 3 mM GTP, specific Ras and SOS proteins in the following concentrations: KRAS-G12C/SOS=3 nM/40 nM, KRAS-WT and G12D/SOS=1 nM/40 nM, KRAS-G12V/SOS=1.25 nM/160 nM. KRAS-G13D/SOS=1.25 nM/0 nM, HRAS and NRAS=1.25 nM/40 nM.
(§5) The time-resolved fluorescence resonance energy transfer (TR-FRET) signal is measured on an Envision (PerkinElmer) plate reader: Excitation filter=340 nm; emission 1=495 nm; emission2=520 nm; dichroic mirror=D400/D505; delay time=[…]. The signal of each well is determined as the ratio of the emission at 520 nm to that at 495 nm. Percent effect of each well is determined after normalization to control wells containing DMSO (no effect) or a saturating concentration of inhibitor (max effect). The apparent effect as a function of compound concentration is fit to a four-parameter logistic equation.

The target in a further test is KRAS-G13D (Homo sapiens, UniProt P01116, G13D). In words: SOS-catalyzed nucleotide exchange assay (Procedure A, TR-FRET), KRAS-G13D. Format: biochemical. The settings on record: nucleotide exchange, Procedure A; read-out: KRAS G13D GNE IC50.
KRAS-G13D, sequence (P01116 with tags, fused parts or gaps isoform P01116-2 G13D): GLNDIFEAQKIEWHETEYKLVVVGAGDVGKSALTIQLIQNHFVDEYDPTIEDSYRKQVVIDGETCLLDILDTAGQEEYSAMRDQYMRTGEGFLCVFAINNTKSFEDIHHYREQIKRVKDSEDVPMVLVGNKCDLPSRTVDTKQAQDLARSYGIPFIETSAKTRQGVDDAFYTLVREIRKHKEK
Description: as §1, §2, §3, §4, §5
In general terms: In TR-FRET formats the signal depends on donor and acceptor labels being close together.

The next test addresses KRAS-WT (Homo sapiens, UniProt P01116). Briefly: SOS-catalyzed nucleotide exchange assay (Procedure A, TR-FRET), KRAS-WT. The test is classed as biochemical. The settings on record: nucleotide exchange, read-out: KRAS WT GNE IC50. In outline:
(§6)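 Inhibitors stabilizing the Bodipy-GDP state are detected as retained TR-FRET from a preformed biotinylated RAS/Tb-streptavidin complex. They are preincubated 60 min at room temperature, then human SOS and 3 mM GTP are added. G12V runs 90 min at 1.25 nM RAS/160 nM SOS. G12C (3 nM), WT (1 nM) and NRAS (1.25 nM) run 60 min with 40 nM SOS.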

A further test deals with KRAS-G12V (Homo sapiens, UniProt P01116, G12V). Briefly: SOS-catalyzed nucleotide exchange assay (Procedure A, TR-FRET), KRAS-G12V. Format: biochemical. The settings on record: nucleotide exchange, read-out: KRAS G12V GNE IC50. In outline: as §6
KRAS-G12V, sequence (P01116 with tags, fused parts or gaps isoform P01116-2 G12V): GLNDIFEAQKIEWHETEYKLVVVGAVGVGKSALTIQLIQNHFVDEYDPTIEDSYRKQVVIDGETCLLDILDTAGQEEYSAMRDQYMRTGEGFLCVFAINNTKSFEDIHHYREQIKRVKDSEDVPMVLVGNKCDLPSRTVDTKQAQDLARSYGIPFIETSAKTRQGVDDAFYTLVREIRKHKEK
Another test addresses KRAS-G12D (Homo sapiens, UniProt P01116, G12D). Briefly: SOS-catalyzed nucleotide exchange assay (Procedure A, TR-FRET), KRAS-G12D. Format: biochemical. The settings on record: nucleotide exchange, read-out: KRAS G12D GNE IC50. In outline:
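Signal ratio (520/495 nm, excitation 340 nm) reports Bodipy-GDP retention on biotinylated RAS after SOS-catalyzed exchange with 3 mM GTP. SOS was 40 nM, except 160 nM for G12V. Room-temperature exchange lasted 60 min (90 min for G12V), following a 60 min compound preincubation.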

In a further test the test system is AsPC-1 cells. Briefly: Cellular phospho-ERK assay, AsPC-1 cells (homozygous KRAS-G12D). Format: cell-based. The settings on record: Homo sapiens, ASPC1, 2 h, read-out: AsPC1 pERK IC50. In outline: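 Readout: p-ERK/total ERK ratio measured by Alpha SureFire Ultra multiplex in lysates after 2 h compound exposure (37 °C, 5% CO2). Dosing ran 10 points, 1:3 dilutions, highest final concentration 30 μM. IC50 values derived by four-parameter logistic regression.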

KRAS-G12D, sequence (P01116 with tags, fused parts or gaps isoform P01116-2 G12D): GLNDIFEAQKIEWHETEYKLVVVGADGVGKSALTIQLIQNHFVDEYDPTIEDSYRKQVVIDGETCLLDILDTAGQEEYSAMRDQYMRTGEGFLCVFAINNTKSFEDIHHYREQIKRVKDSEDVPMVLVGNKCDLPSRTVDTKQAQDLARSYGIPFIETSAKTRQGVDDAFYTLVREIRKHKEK
KRAS-WT, sequence (P01116 with tags, fused parts or gaps isoform P01116-2): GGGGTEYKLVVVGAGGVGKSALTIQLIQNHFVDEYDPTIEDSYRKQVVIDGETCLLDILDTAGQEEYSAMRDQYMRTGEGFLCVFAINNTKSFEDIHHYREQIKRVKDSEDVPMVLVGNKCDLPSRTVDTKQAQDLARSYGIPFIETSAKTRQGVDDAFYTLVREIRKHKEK

Take `Cc1cc2[nH]ncc2c(-c2nccc3c2sc2nc(OC[C@@]45CCCN4C[C@H](F)C5)nc(NC4CCC4)c23)c1C(F)(F)F` [Ex-191, N-cyclobutyl-2-(((2R,7aS)-2-fluorotetrahydro-1H-pyrrolizin-7a(5H)-yl)methoxy)-8-(6-methyl-5-(trifluoromethyl)-1H-indazol-4-yl)pyrido [4′,3′:4,5]thieno[2,3-d] pyrimidin-4-amine]: the pIC50 in test [1] is 6.37; on KRAS-G13D it was 5.43; on KRAS-WT, 4.95; at KRAS-G12V, 5.25; at KRAS-G12D it was 4.95; with AsPC-1 cells (2 hours compound incubation), 5.07.

For the molecule `Cc1cc2[nH]ncc2c(-c2nccc3c2sc2nc(OC[C@@]45CCCN4C[C@H](F)C5)nc(N4CCCC5(CNC(=O)C5)C4)c23)c1C(F)(F)F` (stereo partly drawn) [Ex-193, 7-(2-(((2R,7aS)-2-fluoro-tetrahydro-1H-pyrrolizin-7a(5H)-yl)methoxy)-8-(6-methyl-5-(trifluorometh-yl)-1H-indazol-4-yl)pyrido [4′,3′:4,5]thieno[2,3-d]pyrimidin-4-yl)-2,7-diaza-spiro[4.5]decan-3-one], the pIC50 in test [1] is 6.38; on KRAS-G13D, 6.01; on KRAS-WT, 5.92; at KRAS-G12V, 6.32; on KRAS-G12D it was 6.19; in the test on AsPC-1 cells (2 hours compound incubation), 4.74.

As for `C/C=C(\C)c1c(C)cc2[nH]ncc2c1-c1nccc2c1sc1nc(OC[C@@]34CCCN3C[C@H](F)C4)nc(N3CCOC[C@@](C)(O)C3)c12` [Ex-65, (6S)-4-(8-(5-((E)-but-2-en-2-yl)-6-methyl-1H-indazol-4-yl)-2-(((2R,7aS)-2-fluorotetrahydro-1H-pyrrolizin-7a(5H)-yl)methoxy)pyrido[4′,3′:4,5]thi-eno[2,3-d]pyrimidin-4-yl)-6-methyl-1,4-oxazepan-6-ol], the pIC50 in test [1] is 6.44; at KRAS-G13D, 6.76; on KRAS-WT, 6.74; on KRAS-G12V it was 7.19; at KRAS-G12D it was 7.16; with AsPC-1 cells (KRAS-G12D, 2 hours), 6.25.

With `Cc1cc2[nH]ncc2c(-c2ncnc3c2sc2nc(OC[C@@]45CCCN4C[C@H](F)C5)nc(N4CCOC[C@@](C)(O)C4)c23)c1C(F)(F)F` [Ex-276, (6S)-4-(7-(((2R,7aS)-2-fluorotetrahydro-1H-pyrrolizin-7a(5H)-yl)methoxy)-4-(6-methyl-5-(trifluoromethyl)-1H-indazol-4-yl)thieno[2,3-d:4,5-d′]dipyrimidin-9-yl)-6-methyl-1,4-oxazepan-6-ol], the pIC50 was 6.90 in test [1]; 6.34 on KRAS-G13D; 6.10 on KRAS-WT; 6.51 on KRAS-G12V; 6.37 at KRAS-G12D; 5.74 in the test with AsPC-1 cells (KRAS-G12D, 2 hours).

Take `Cc1cc2[nH]ncc2c(-c2nncc3c2sc2nc(OC[C@@]45CCCN4C[C@H](F)C5)nc(N4CCOC[C@@](C)(O)C4)c23)c1C(F)(F)F` [Ex-277, (6S)-4-(2-(((2R,7aS)-2-fluorotetrahydro-1H-pyrrolizin-7a(5H)-yl)methoxy)-8-(6-methyl-5-(trifluoromethyl)-1H-indazol-4-yl)pyrimido[5′,4′:4,5]thieno[2,3-d]pyridazin-4-yl)-6-methyl-1,4-oxazepan-6-ol]: the pIC50 in test [1] was 6.74; on KRAS-G13D, 7.42; on KRAS-WT it was 7.02; on KRAS-G12V, 7.19; on KRAS-G12D it was 7.41; with AsPC-1 cells (KRAS-G12D, 2 hours) it was 5.96.

Take `C[C@@]1(O)COCCN(c2nc(OC[C@@]34CCCN3C[C@H](F)C4)nc3sc4c(-c5c(-c6cccs6)c(Cl)cc6[nH]ncc56)nccc4c23)C1` [Ex-143, (6S)-4-(8-(6-chloro-5-(thiophen-2-yl)-1H-indazol-4-yl)-2-(((2R,7aS)-2-fluoro-tetrahydro-1H-pyr-rolizin-7a(5H)-yl)-methoxy)pyrido [4′,3′:4,5]thieno[2,3-d]pyrimidin-4-yl)-6-methyl-1,4-oxaze-pan-6-ol]: the negative logarithm of the IC50 (pIC50) is 7.28 in test [1]; 6.91 at KRAS-G13D; 6.71 on KRAS-WT; 6.96 on KRAS-G12V; 6.97 at KRAS-G12D; 6.48 with AsPC-1 cells (2 hours compound incubation).

For `Cc1cc2[nH]ncc2c(-c2nccc3c2sc2nc(OC[C@@]45CCCN4C[C@H](F)C5)nc(NC4CCOC4)c23)c1C(F)(F)F` (stereo partly drawn) [Ex-188, 2-(((2R,7aS)-2-fluoro-tetrahydro-1H-pyrrolizin-7a(5H)-yl)methoxy)-8-(6-methyl-5-(trifluoromethyl)-1H-indazol-4-yl)-N-(tetra-hydrofuran-3-yl)pyrido [4′,3′:4,5]thieno[2,3-d] pyrimidin-4-amine], the pIC50 in test [1] was 6.25; on KRAS-G13D, 5.90; on KRAS-WT, 5.73; at KRAS-G12V it was 6.12; on KRAS-G12D, 5.31; in the test with AsPC-1 cells (2 hours compound incubation), 5.44.

Consider `Cc1cc2[nH]ncc2c(-c2nccc3c2sc2nc(OC[C@@]45CCCN4C[C@H](F)C5)nc(NC45CC(O)(C4)C5)c23)c1C(F)(F)F` [Ex-187, 3-((2-(((2R,7aS)-2-fluoro-tetrahydro-1H-pyrrolizin-7a(5H)-yl)methoxy)-8-(6-methyl-5-(trifluorometh-yl)-1H-indazol-4-yl)pyrido [4′,3′:4,5]thieno[2,3-d]pyrimidin-4-yl)amino)-bicyclo[1.1.1]pentan-1-ol], for which the pIC50 was 7.14 in test [1]; 6.65 at KRAS-G13D; 6.30 at KRAS-WT; 6.77 at KRAS-G12V; 6.41 at KRAS-G12D; 5.45 in the test on AsPC-1 cells (2 hours compound incubation).
